Measured values taken from patent publication US6525059B1, “Substituted pyrazoles as p38 kinase inhibitors” (G. D. Searle & Company, priority 1998, dated 2003).
Like-named read-outs stand apart in the source and are kept apart here.

What was measured:
TNF alpha = assay: Mouse model of LPS-induced TNF alpha production; format: in vivo; settings: for inhibition in vivo at 100 mg/kg: 100 mpk oral gavage
Description: TNF alpha was induced in 10-12 week old BALB/c female mice by tail vein injection with 100 ng lipopolysaccharide (from S. Typhosa) in 0.2 ml saline. One hour later mice were bled from the retroorbital sinus and TNF concentrations in serum from clotted blood were quantified by ELISA.
Efficacy was determined at each time point as percent inhibition of serum TNF levels relative to LPS injected mice that received vehicle only
wherein in the dose is milligram per kilogram (mpk) administered by oral gavage and the predose time indicates the number of hours before LPS challenge when the compound is administered.

[1] = target: T1, human GST-p38 kinase alpha (Homo sapiens, UniProt Q16539); assay: p38 kinase in vitro assay, second format, phosphorylation of EGFRP with 33P-ATP; format: biochemical; settings: EGFRP assay procedure
T1 construct: The coding region of the human p38a cDNA was obtained by PCR-amplification from RNA isolated from the human monocyte cell line THP.1; made in house; host or cells: E. coli DH10B
T1 sequence (Q16539 whole entry): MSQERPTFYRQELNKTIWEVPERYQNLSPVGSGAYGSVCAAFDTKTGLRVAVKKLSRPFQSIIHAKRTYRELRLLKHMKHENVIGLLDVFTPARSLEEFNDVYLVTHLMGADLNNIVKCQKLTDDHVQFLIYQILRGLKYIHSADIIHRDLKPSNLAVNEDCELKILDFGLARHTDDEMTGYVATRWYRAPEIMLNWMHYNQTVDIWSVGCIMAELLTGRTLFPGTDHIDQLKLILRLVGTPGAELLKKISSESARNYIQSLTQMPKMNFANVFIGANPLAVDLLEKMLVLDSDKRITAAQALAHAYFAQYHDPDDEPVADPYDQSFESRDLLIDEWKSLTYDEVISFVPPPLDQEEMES
Summary of the method: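 Activated human GST-p38α (pre-activated with GST-MKK6, 1 h, 30 °C) phosphorylates EGFR 21-mer peptide (200 μM) with 50 μM ATP plus γ-33P-ATP, pH 7.5, 60 min at room temperature. Unreacted ATP removed by AG 1×8 resin; supernatant scintillation-counted.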

TNF-α [2] = assay: LPS stimulation of TNF production by U937 cells; format: cell-based, human
Summary of the method: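 PMA-differentiated human U937 cells (20 ng/ml PMA, 24 h, then 24-48 h rest) at 2 million cells/ml, 0.1% DMSO final, stimulated with E. coli LPS (100 ng/ml final) for 4 h at 37° C. TNF-α in medium measured by ELISA; IC50 in μM.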

human p38 kinase alpha = target: T2, human p38 kinase alpha (Homo sapiens, UniProt Q16539); assay: p38 kinase in vitro assay, phosphorylation of biotinylated PHAS-I with gamma 32P-ATP; format: biochemical
T2 construct: The coding region of the human p38a cDNA was obtained by PCR-amplification from RNA isolated from the human monocyte cell line THP.1; GST (N); made in house; host or cells: E. coli DH10B
T2 sequence (Q16539 whole entry): as above
Summary of the method: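 Radiometric filter-capture read-out: streptavidin plates trap biotin-PHAS-I labelled by activated (MKK6) human p38α from γ-32P-ATP. Buffer 25 mM HEPES pH 7.5, 10 mM magnesium acetate, 50 μM cold ATP; reactions 1 h or overnight at 30 °C; inhibitors 10-fold dilutions 100 to 0.001 μM, triplicates, 1% DMSO.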

TNF-α [3] = assay: Rat assay: LPS-challenged rats, serum TNF-α by ELISA; format: in vivo; settings: Rattus norvegicus, po, 3 mpk oral gavage, read-out: Rat LPS Model % inhib @ dose @ predose time
[4] = mouse, oral, 1h before LPS, 30 mpk, read-out: mLPS 1h, 30 mpk percent inhibition
[5] = p38α in vitro, read-out: p38^2 IC50
[6] = Homo sapiens, U-937, LPS-stimulated U937 cells, read-out: U937 IC50
[7] = p38α in vitro, PHAS-I assay procedure, read-out: p38^1 IC50
[8] = Homo sapiens, U-937, TNF production, LPS-stimulated human U937 cells, read-out: U937 Cell IC50
[9] = Mus musculus, -6h before LPS, read-out: Mouse LPS Model % TNF inhib @ dose @ predose time
[10] = Mus musculus, 30 mpk oral gavage, -6h before LPS, read-out: Mouse LPS Model % TNF inhib @ dose @ predose time
[11] = read-out: P38 alpha kinase IC50

Row | Compound | inhibition in vivo at 30 mg/kg (TNF alpha; [4]) [%] | IC50 [1, 5] [nM] | IC50 (TNF-α [2]; [6]) [nM] | other results
1 | CCC(CO)Nc1cc(-c2c[nH]nc2-c2ccc(F)cc2)ccn1 (stereo not shown) [Example A-213, 2-[[4-[3-(4-fluorophenyl)-1H-pyrazol-4-yl]-2-pyridinyl]amino)-1-butanol] | 57 | 220 | – | –
2 | Fc1ccc(-c2nn(CCN3CCOCC3)cc2-c2ccncc2)cc1 [Example A-216, 4-[2-[3-(4-fluorophenyl)-4-(4-pyridinyl)-1H-pyrazol-1-yl]ethyl)morpholine] | 91 | 18 | 1830 | –
3 | Fc1cccc(-c2n[nH]cc2-c2ccncc2)c1 [Example A-227, 4-[3-(3-fluorophenyl)-1H-pyrazol-4-yl]pyridine] | 96 | 60 | – | –
4 | Clc1ccc(-c2n[nH]cc2-c2ccncc2)cc1 [Example A-230, 4-[3-(4-chlorophenyl)-1H-pyrazol-4-yl]pyridine] | 96 | 178 | – | IC50 (human p38 kinase alpha; [7]): 420 nM
5 | Cn1cc(-c2ccncc2)c(-c2ccc3c(c2)OCO3)n1 [Example A-231, 4-[3-(1,3-benzodioxol-5-y)-1-methyl-1H-pyrazol-4-yl]pyridine] | 94 | 174 | 322 | –
6 | Cn1cc(-c2ccncc2)c(-c2ccc(Cl)cc2)n1 [Example A-232, 4-[3-(4-chlorophenyl)-1-methyl-1H-pyrazol-4-yl]pyridine] | 96 | 48 | – | –
7 | c1ccc(-c2n[nH]cc2-c2ccncc2)cc1 [Example A-236, 4-(3-phenyl-1H-pyrazol-4-yl)pyridine] | 94 | – | – | IC50 ([1]; p38^2 IC50, p38α in vitro): 237 nM
8 | FC(F)(F)c1cccc(-c2n[nH]cc2-c2ccncc2)c1 [Example A-237, 4-[3-[3-(trifluoromethyl)phenyl]-1H-pyrazol-4-yl]pyridine] | 60 | 93 | 87 | –
9 | Fc1ccc(-c2n[nH]cc2-c2ccncc2)cc1F [Example A-239, 4-[3-(3,4-difluorophenyl)-1H-pyrazol-4-yl]pyridine] | 87 | 34 | – | –
10 | Fc1cc(-c2c[nH]nc2-c2ccc(Cl)cc2)ccn1 [Example A-240, 4-[3-(4-chlorophenyl)-1H-pyrazol-4-yl]-2-fluoropyridine] | 85 | 961 | – | –
11 | Brc1ccc(-c2n[nH]cc2-c2ccncc2)cc1 [Example A-241, 4-[3-(4-bromophenyl)-1H-pyrazol-4yl]pyridine] | 87 | 338 | – | –
12 | Cn1cc(-c2ccncc2)c(-c2ccc(F)c(F)c2)n1 [Example A-242, 4-[3-(3,4-difluorophenyl)-1-methyl-1H-pyrazol-4-yl]pyridine] | 87 | 47 | – | –
13 | Cn1cc(-c2ccncc2)c(-c2ccc(Br)cc2)n1 [Example A-243, 4-[3-(4-bromophenyl)-1-methyl-1H-pyrazol-4-yl]pyridine] | 82 | 729 | – | –
14 | CC[C@H](C)CNc1cc(-c2c[nH]nc2-c2ccc(Cl)cc2)ccn1 [Example A-245, (S)-4-[3-(4-chlorophenyl)-1H-pyrazol-4-yl]-N-(2-methylbutyl)-2-pyridinamine] | 65 | < 1 | 33.7 | –
15 | Fc1ccc(-c2n[nH]cc2-c2ccnc(F)c2)cc1 [Example A-249, 2-fluoro-4-[3-(4-fluorophenyl)-1H-pyrazol-4-yl]pyridine] | 86 | 432 | – | –
16 | Cn1cc(-c2ccncc2)c(-c2ccc(I)cc2)n1 [Example A-251, 4-[3-(4-iodophenyl)-1-methyl-1H-pyrazol-4-yl]pyridine] | 87 | 637 | – | –

Row | Compound | inhibition in vivo at 30 mg/kg (TNF alpha; [4]) [%] | IC50 [1, 5] [nM] | IC50 (TNF-α [2]; [6]) [nM] | other results
17 | Cn1cc(-c2ccncc2)c(-c2ccc(C(F)(F)F)cc2)n1 [Example A-252, 4-[1-methyl-3-[4-(trifluoromethyl)phenyl]-1H-pyrazol-4-yl]pyridine] | 75 | 774 | 1200 | –
18 | CC(Nc1cc(-c2c[nH]nc2-c2ccc(F)cc2)ccn1)c1ccc(F)cc1 (stereo not shown) [Example A-253, N-[1-(4-fluorophenyl)ethyl]-4-[3-(4-fluorophenyl)-1H-pyrazol-4-yl]-2-pyridinamine] | 61 | < 1 | 4.4 | –
19 | Cc1cnccc1-c1c[nH]nc1-c1ccc(F)cc1 [Example A-258, 4-[3-(4-fluorophenyl)-1H-pyrazol-4-yl]-3-methylpyridine] | 68 | 480 | 1210 | –
20 | Cc1cnccc1-c1cn(C)nc1-c1ccc(F)cc1 [Example A-259, 4-[3-(4-fluorophenyl)-1-methyl-1H-pyrazol-4-yl]-3-methylpyridine] | 62 | 170 | 757 | –
21 | Cn1cc(-c2ccnc(F)c2)c(-c2ccc(F)c(F)c2)n1 [Example A-260, 4-[3-(3,4-difluorophenyl)-1-methyl-1H-pyrazol-4-yl]-2-fluoropyridine] | 79 | 230 | 1280 | –
22 | OCCn1cc(-c2ccnc(CCc3ccc(F)cc3)c2)c(-c2ccc(F)cc2)n1 [Example A-272, 3-(4-fluorophenyl)-4-[2-[2-(4-fluorophenyl)ethyl]-4-pyridinyl]-1H-pyrazole-1-ethanol] | -8 | – | 583 | IC50 (human p38 kinase alpha; [7]): 73 nM
23 | CN(C)CCn1cc(-c2ccnc(N(C)C)c2)c(-c2ccc(F)cc2)n1 [Example A-273, 4-[1-[2-(dimethylamino)ethyl]-3-(4-fluorophenyl)-1H-pyrazol-4-yl]-N,N-dimethyl-2-pyridinamine] | 43 | – | > 10000 | IC50 (human p38 kinase alpha; [7]): 6980 nM
24 | O=C(NCc1[nH]nc(-c2ccc(F)cc2)c1-c1ccncc1)c1c(F)cc(F)cc1F [Example B-0051] | – | – | – | IC50 (TNF-α [2]; [8]): 2150 nM; inhibition in vivo at 3 mg/kg (TNF-α [3]; 4 h, 4h): 79%; inhibition in vivo at 100 mg/kg (TNF alpha; [9]): 47%
25 | O=C(COc1ccc(Cl)cc1)NCc1[nH]nc(-c2ccc(F)cc2)c1-c1ccncc1 [Example B-0093] | – | – | – | IC50 (TNF-α [2]; [8]): 1250 nM; inhibition in vivo at 30 mg/kg (TNF alpha; [10]): 30%; IC50 (human p38 kinase alpha; [11]): 3180 nM
26 | COc1ccc(S(=O)(=O)NCc2[nH]nc(-c3ccc(F)cc3)c2-c2ccncc2)cc1 [Example B-0117] | – | – | – | IC50 (TNF-α [2]; [8]): 1780 nM; inhibition in vivo at 30 mg/kg (TNF alpha; [10]): 30%; IC50 (human p38 kinase alpha; [11]): 460 nM
27 | O=S(=O)(Cc1ccccc1)NCc1[nH]nc(-c2ccc(F)cc2)c1-c1ccncc1 [Example B-0120] | – | – | – | IC50 (TNF-α [2]; [8]): 210 nM; inhibition in vivo at 3 mg/kg (TNF-α [3]; -4 h, -4h before LPS): 70%; inhibition in vivo at 100 mg/kg (TNF alpha; [9]): 77%; IC50 (human p38 kinase alpha; [11]): 8 nM
28 | C[C@@H](NC(=O)c1ccccc1I)c1[nH]nc(-c2ccc(F)cc2)c1-c1ccncc1 [Example B-0354] | – | – | – | IC50 (TNF-α [2]; [8]): 660 nM; inhibition in vivo at 3 mg/kg (TNF-α [3]; -4 h, -4h before LPS): 54%; inhibition in vivo at 30 mg/kg (TNF alpha; [10]): 51%; IC50 (human p38 kinase alpha; [11]): 1000 nM
29 | C[C@@H](NC(=O)c1ccccc1C(F)(F)F)c1[nH]nc(-c2ccc(F)cc2)c1-c1ccncc1 [Example B-0368] | – | – | – | IC50 (TNF-α [2]; [8]): 640 nM; inhibition in vivo at 30 mg/kg (TNF alpha; [10]): 37%; IC50 (human p38 kinase alpha; [11]): 1000 nM
30 | C[C@@H](NS(=O)(=O)c1ccc(F)cc1)c1[nH]nc(-c2ccc(F)cc2)c1-c1ccncc1 [Example B-0385] | – | – | – | IC50 (TNF-α [2]; [8]): 900 nM; inhibition in vivo at 3 mg/kg (TNF-α [3]; -4 h, -4h before LPS): 0%; inhibition in vivo at 30 mg/kg (TNF alpha; [10]): 30%; IC50 (human p38 kinase alpha; [11]): 57 nM
31 | Cc1c(-c2ccncc2)c(-c2ccc(F)cc2)nn1CC(=O)NCCc1ccc(Oc2ccccc2)cc1 [Example B-2286] | – | – | – | IC50 (TNF-α [2]; TNF production, LPS-stimulated human U937 cells, read-out: U937 Cell IC50): 780 nM; Mouse LPS Model % TNF inhib @ dose @ predose time (TNF alpha; 30 mpk oral gavage, 1 h before LPS challenge): 25% @ 30 mpk @ -1h; IC50 (human p38 kinase alpha; [11]): 17 nM
